In US20220017486A1, “DOCK1-INHIBITING COMPOUND AND USE THEREOF” (KYUSHU UNIVERSITY, NATIONAL UNIVERSITY CORPORATION, priority 2018, published 2022):
Blank lines part the entries; values can stand above or below the molecule they belong to.

What was measured:
DOCK1 (DHR-2 domain) = biological target: T1, DOCK1 (DHR-2 domain) (Homo sapiens, UniProt Q14185); assay: In vitro GEF assay: Rac activation by DOCK1 DHR-2 domain; type: biochemical, mice and humans; details: in words; for selective inhibitory activity against DOCK1 versus DOCK2: GEF assay DOCK1 vs DOCK2 DHR-2 domain
T1 construct: polypeptide fragments corresponding to the DHR-2 domain of DOCK1 or DOCK2 from mice and humans; Histidine-SUMO (N); made in house; host or cells: E. coli Arctic express (DE3)
T1 sequence (Q14185 1207-1617 limits assumed): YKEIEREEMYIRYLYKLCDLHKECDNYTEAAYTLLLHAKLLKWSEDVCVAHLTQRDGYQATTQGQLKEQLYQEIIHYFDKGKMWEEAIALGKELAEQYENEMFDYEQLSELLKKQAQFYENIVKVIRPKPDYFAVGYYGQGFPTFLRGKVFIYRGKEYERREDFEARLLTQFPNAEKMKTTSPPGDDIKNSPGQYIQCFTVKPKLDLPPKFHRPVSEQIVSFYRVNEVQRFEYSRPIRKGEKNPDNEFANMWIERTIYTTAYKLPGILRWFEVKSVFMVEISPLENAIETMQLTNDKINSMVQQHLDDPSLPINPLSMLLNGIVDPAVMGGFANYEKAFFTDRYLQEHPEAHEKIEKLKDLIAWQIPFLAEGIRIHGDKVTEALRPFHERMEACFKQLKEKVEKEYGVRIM
Procedure: DOCK1 and DOCK2, i.e., DOCK-A subfamily members, both activate Rac by catalyzing the GTP-GDP exchange reaction for Rac via their DHR-2 domains. Therefore, in this Pharmacological Test, the inhibitory effect of the compounds of the present invention on Rac activation by DOCK1 or DOCK2 was assessed in an in vitro GEF assay by using polypeptide fragments corresponding to the DHR-2 domain of DOCK1 or DOCK2 from mice and humans. The in vitro GEF assay was performed using a labeled GTP (Bodipy-FL-GTP, Invitrogen), which has a property of increasing the fluorescence intensity when bound to Rac.
The polypeptide fragments corresponding to the DHR-2 domain of DOCK1 or DOCK2 were prepared by expression in E. coli Arctic express (DE3) cells as N-terminal. Histidine-SUMO tag-fused recombinant proteins, followed by purification by affinity column chromatography on nickel-NTA columns.
Rac was prepared by expression in E. coli BL21 (DE3) cells as an N-terminal GST tag-fused recombinant protein, followed by purification by affinity column chromatography on glutathione-Sepharose columns.
Each of the polypeptide fragments corresponding to the DHR-2 domain of DOCK1 or DOCK2, and a predetermined concentration of each test compound (the compounds of the present invention: 33 types of compounds; and comparative compound: TBOPP) dissolved in DMSO were incubated in a reaction solution A (pH 7.0), which contained 20 mM of MES-NaOH, 150 mM of NaCl, 10 mM of MgCl2, and 20 μM of GDP for 20 minutes at room temperature while being shielded from light to thus prepare GEF pretreated products. The final concentration of DMSO was adjusted to 1 mass % in all of the test samples. For a control test, a GEF pretreated product (control) was prepared by incubation in the same manner using DMSO with no test compounds, instead of the DMSO used above in which each test compound was dissolved.
Separately, Rac was added to the reaction solution A (pH 7.0) to a concentration of 15 μM, and was allowed to stand on for 30 min to form a GDP-Rac complex. Bodipy-FL-GTP was added to a concentration of 3.6 μM to 100 μL of the reaction solution A that contained the thus-prepared GDP-Rac complex, and equilibrated at 30° C. for 2 minutes. After equilibration, 50 μL of the GEF pretreated product prepared as described above was added and reacted at 30° C.
Changes in fluorescence intensity of Bodipy-FL-GTP in the reaction solutions were monitored using an EnSpire spectrofluorometer (Perkin Elmer) (excitation wavelength: 488 nm, fluorescence wavelength: 514 nm). The measured values were corrected so that the fluorescence intensity at the beginning of the reaction (0 sec) was 0. Then, an approximate curve (hyperbola) was obtained by plotting the calculated correction values on the y-axis and the time (t) on the x-axis using GraphPad Prism5 (GraphPad software), and the slope at t=0 to 10 seconds was defined as the initial velocity of the guanine nucleotide exchange reaction. The IC50 value was calculated taking the initial reaction velocity of the control, to which only a solvent (DMSO) was added, as 100%.
Based on the obtained results, columns A and B of FIG. 1, FIG. 2, FIG. 3-1, and FIG. 3-2 show the results evaluating the inhibitory effect on Rac activation by DOCK1 (DHR-2 domain) (IC50 value), and DOCK1-selective inhibitory effect (DOCK1/DOCK2 selectivity) of each test compound. The inhibitory effect on Rac activation by DOCK1 (DHR-2 domain) (IC50 value) was determined from the reaction inhibition curve plotted using values of Rac activation by the DOCK1 DHR-2 domain in the presence of various concentrations of the test compounds, taking the values of the control as 100%. […]

[1] = tested on: mouse lung carcinoma cell line (3LL cells); assay: Cell invasion inhibition assay (Matrigel invasion chamber); type: cell-based; details: in words
Procedure: In this Pharmacological Test, the inhibitory effect of each test compound on cell invasion response was evaluated using a mouse lung carcinoma cell line (3LL cells), a mouse pancreatic cancer cell line (PANC02 cells), and a human breast cancer cell line (MDA-MB-157 cells). Of these, the mouse lung carcinoma cell line (3LL) is a cancer cell line with mutant Ras (K-Ras (G12C)), and the human breast cancer cell line (MDA-MB-157) is a cancer cell line with mutant Rac (Rac1 (P29S)). The experiments were performed in BD BioCoat Matrigel invasion chambers (BD Biosciences).
Specifically, an upper chamber with a Matrigel-coated membrane insert (8 μm pores) at the bottom was equilibrated with DMEM (serum-free medium) for 120 minutes. Thereafter, 300 μL of a suspension of a cancer cell line in DMEM (serum-free) was placed in the upper chamber while 500 μL of DMEM (with 10 mass % FCS) was placed in the lower chamber. Each test compound dissolved in DMSO at a predetermined concentration was added to both the culture media in the upper and lower chambers. As a control, DMSO alone was added to both the culture media in the upper and lower chambers. In all of the experiments, the final DMSO concentration in the culture media was adjusted to 0.2 mass %.
The resulting products were cultured under 5% CO2 at 37° C. for 22 hours (3LL and PANC02 cells) or 48 hours (MDA-MB-157 cells). Then, the upper chamber was removed, and the culture medium was removed. Thereafter, non-invading cells remaining in the upper chamber were removed using a cotton swab, and the cells remaining outside the bottom of the upper chamber (cells that had invaded into the Matrigel, and passed through the membrane insert) were stained with Diff-Quick (Sysmex). After staining, the membrane inserts with Matrigel were cut out using a scalpel to prepare slides, and the number of invading cells was counted under an optical microscope.
The results were evaluated based on percent cell invasion (%: Invasion) and percent inhibition (%: Inhibition). The percent cell invasion was obtained by converting the number of invading cells in the presence of each test compound into a percentage, taking the number of invading cells in the control test, in which DMSO was added alone, as 100%; and the percent inhibition was obtained by deducting the percent cell invasion from 100.

SMILES: O=C(Cn1cc(S(=O)(=O)N2CCCC2)cc1-c1ncco1)c1ccc(-c2cccc(C(F)(F)F)c2)cc1 [RT-58, 2-(2-(oxazol-2-yl)-4-(pyrrolidin-1-yl-sulfonyl)-1H-pyrrol-1-yl)-1-(3′-(trifluoromethyl)-[1,1′-biphenyl]-4-yl)ethan-1-one]
selective inhibitory activity against DOCK1 versus DOCK2 (DOCK1 (DHR-2 domain)): higher selective inhibitory activity against DOCK1 than against DOCK2 | percent cell invasion inhibition compared with TBOPP [1]: higher percent cell invasion inhibition than TBOPP

SMILES: COC(=O)c1cc(S(=O)(=O)N2CCCC2)cn1CC(O)c1ccc(-c2cccc(C(F)(F)F)c2)cc1 (stereo not shown) [HS-6, methyl 1-(2-hydroxy-2-(3′-(trifluoromethyl)-[1,1′-biphenyl]-4-yl)ethyl)-4-(pyrrolidin-1-yl-sulfonyl)-1H-pyrrole-2-carboxylate]
selective inhibitory activity against DOCK1 versus DOCK2 (DOCK1 (DHR-2 domain)): higher selective inhibitory activity against DOCK1 than against DOCK2 | percent cell invasion inhibition compared with TBOPP [1]: higher percent cell invasion inhibition than TBOPP

SMILES: O=C(Cn1cc(S(=O)(=O)N2CCCC2)ccc1=O)c1ccc(-c2ccc3cccnc3c2)cc1 [KS-18, 1-(2-oxo-2-(4-(quinolin-7-yl)phenyl)ethyl)-5-(pyrrolidin-1-yl-sulfonyl)pyridin-2(1H)-one]
percent cell invasion inhibition compared with TBOPP [1]: higher percent cell invasion inhibition than TBOPP

SMILES: CCC(=O)c1cc(S(=O)(=O)N2CCCC2)cn1CC(=O)c1ccc(-c2cccc(C(F)(F)F)c2)cc1 [HS-17, 1-(1-(2-oxo-2-(3′-(trifluoromethyl)-[1,1′-biphenyl]-4-yl)ethyl)-4-(pyrrolidin-1-yl-sulfonyl)-1H-pyrrol-2-yl)propan-1-one]
percent cell invasion inhibition compared with TBOPP [1]: higher percent cell invasion inhibition than TBOPP

SMILES: Nc1cc(S(=O)(=O)N2CCCC2)cn(CC(=O)c2ccc(-c3cccc(C(F)(F)F)c3)cc2)c1=O [RT-13, 3-amino-1-(2-oxo-2-(3′-(trifluoromethyl)-[1,1′-biphenyl]-4-yl)ethyl)-5-(pyrrolidin-1-yl-sulfonyl)pyridin-2(1H)-one]
percent cell invasion inhibition compared with TBOPP [1]: higher percent cell invasion inhibition than TBOPP

DOCK1-inhibiting activity compared with TBOPP (DOCK1 (DHR-2 domain); GEF assay): higher than those of TBOPP | selective inhibitory activity against DOCK1 compared to TBOPP (DOCK1 (DHR-2 domain); GEF assay): higher than those of TBOPP
SMILES: O=C(Cn1cc(S(=O)(=O)N2CCC(c3ccc(-c4cc(F)c(F)c(F)c4)cc3)CC2)ccc1=O)c1ccc(-c2cc(F)c(F)c(F)c2)cc1 [KS-59, 1-(2-oxo-2-(3′,4′,5′-trifluoro-[1,1′-biphenyl]-4-yl)ethyl)-5-((4-(3′,4′,5′-trifluoro-[1,1′-biphenyl]-4-yl)piperidin-1-yl)sulfonyl)pyridin-2(1H)-one]
selective inhibitory activity against DOCK1 versus DOCK2 (DOCK1 (DHR-2 domain)): higher selective inhibitory activity against DOCK1 than against DOCK2 | percent cell invasion inhibition compared with TBOPP [1]: higher than those of TBOPP

SMILES: O=C(Cn1cc(S(=O)(=O)N2CCCC2)ccc1=O)c1ccc(-c2ccc3ncccc3c2)cc1 [KS-23, 1-(2-oxo-2-(4-(quinolin-6-yl)phenyl)ethyl)-5-(pyrrolidin-1-yl-sulfonyl)pyridin-2(1H)-one]
percent cell invasion inhibition compared with TBOPP [1]: higher percent cell invasion inhibition than TBOPP

SMILES: CC(=O)c1cc(S(=O)(=O)N2CCCC2)cn1CC(=O)c1ccc(-c2cccc(C(F)(F)F)c2)cc1 [HS-16, 2-(2-acetyl-4-(pyrrolidin-1-yl-sulfonyl)-1H-pyrrol-1-yl)-1-(3′-(trifluoromethyl)-[1,1′-biphenyl]-4-yl)ethane-1-one]
selective inhibitory activity against DOCK1 versus DOCK2 (DOCK1 (DHR-2 domain)): higher selective inhibitory activity against DOCK1 than against DOCK2 | percent cell invasion inhibition compared with TBOPP [1]: higher percent cell invasion inhibition than TBOPP

SMILES: O=C(Cn1cc(S(=O)(=O)N2CCCC2)ccc1=O)c1ccc(-c2cccc(SC(F)(F)F)c2)cc1 [KS-21, 1-(2-oxo-2-(3′-((trifluoromethyl)thio)-[1,1′-biphenyl]-4-yl)ethyl)-5-(pyrrolidin-1-yl-sulfonyl)pyridin-2(1H)-one]
percent cell invasion inhibition compared with TBOPP [1]: higher percent cell invasion inhibition than TBOPP

SMILES: Cc1cc(-c2ccc(C(=O)Cn3cc(S(=O)(=O)N4CCCC4)ccc3=O)cc2)ccc1N(C)C [KS-16, 1-(2-(4′-(dimethylamino)-3′-methyl-[1,1′-biphenyl]-4-yl)-2-oxoethyl)-5-(pyrrolidin-1-yl-sulfonyl)pyridin-2(1H)-one]
percent cell invasion inhibition compared with TBOPP [1]: higher percent cell invasion inhibition than TBOPP
